From patent publication US12084458B2, “Substituted pyridines, pyridazines, and pyrimidines as TYK2 inhibitors” (Sudo Biosciences Limited, priority 2021, dated 2024) come the findings set out here.

Holding throughout (type): cell-based
The subject of experiment [1] is HEK-Blue IFNα/β cells (IFNα-stimulated STAT1 SEAP reporter; TYK2 JH2). Kind of experiment: HEK-Blue IFNα/β SEAP reporter assay for profiling TYK2 pseudokinase (JH2) inhibition. To be noted: Homo sapiens, HEK-Blue, 1 ng/mL human recombinant IFNα, read-out: IFNα (TYK2 inhibitory activity, IC50). The procedure: (§1) Example B-1: HEK-Blue™ IL-23 and IFNα/β Reporter Assays for Profiling TYK2 Pseudokinase (JH2) Inhibition
(§2) HEK-Blue™ IL-23 and IFNα/β cells with a stably-integrated cytokine receptor and STAT3 or STAT1 express STAT-inducible secreted embryonic alkaline phosphatase (SEAP) reporter gene upon cytokine stimulation. These cells are plated in DMEM (Gibco) containing 10% heat-inactivated FBS (Gibco) and 100 U/mL PenStrep (Gibco) at 37° C. under 5% CO2 conditions for 20-22 hours. The cells are then pretreated with serially diluted test compounds for 60 min prior to stimulation with either 10 ng/mL human recombinant IL-23 (Miltenyl Biotech) or 1 ng/mL human recombinant IFNα (InvivoGen) for 22-24 hours for IL-23 or 16-18 h for IFNα. SEAP induction is measured using the QUANTI Blue™ Solution (InvivoGen) according to the manufacturer's instructions.

For experiment [2], the system named is HEK-Blue IFNγ reporter cells (IFNγ-stimulated STAT1 SEAP reporter). Kind of experiment: HEK-Blue IFNγ SEAP reporter assay for determining selectivity. More on the design: IFN-γ (SEAP selectivity, IC50): scale not given here. The conditions noted are these: 50 ng/mL human recombinant IFNγ; for IC50: Homo sapiens, HEK-Blue, read-out: IFN-γ (SEAP selectivity, IC50). The procedure: (§3) Example B-3: HEK-Blue™ IL-2 and IFNγ Reporter Assays for Determining Selectivity
(§4) HEK-Blue™ IL-2 and IFNγ reporter cells with a stably-integrated cytokine receptor and STAT5 or STAT1 express STAT-inducible secreted embryonic alkaline phosphatase (SEAP) reporter gene upon cytokine stimulation. These cells were plated in DMEM (Gibco) containing 10% heat-inactivated FBS (Gibco) and 100 U/mL PenStrep (Gibco) at 37° C. under 5% CO2 conditions for 20-22 hours. The cells were then pretreated with serially diluted test compounds for 60 min prior to stimulation with either 4 ng/mL human recombinant IL-2 (Miltenyl Biotech) or 50 ng/mL human recombinant IFNγ (InvivoGen) for 24 hours. SEAP induction was measured using the QUANTI-Blue™ Solution (InvivoGen) according to the manufacturer's instructions.

Experiment [3] concerns HEK-Blue IL-2 reporter cells (IL-2-stimulated STAT5 SEAP reporter). As to the kind of experiment: HEK-Blue IL-2 SEAP reporter assay for determining selectivity. To be noted: 4 ng/mL human recombinant IL-2. The protocol:
as §3, §4
On the technique in general: Reporter assays use an easily measured gene product as a stand-in for the process of interest.

For experiment [4], the system named is HEK-Blue IL-23 cells (IL-23-stimulated STAT3 SEAP reporter; TYK2 JH2). Kind of experiment: HEK-Blue IL-23 SEAP reporter assay for profiling TYK2 pseudokinase (JH2) inhibition. To be noted: 10 ng/mL human recombinant IL-23, SEAP reporter, read-out: IL23 (TYK2 inhibitory activity, IC50). The procedure:
as §1, §2

The structures appear in SMILES notation. Some results are limits rather than exact numbers.

As for `[2H]C([2H])([2H])NC(=O)c1nnc(NC(=O)C2CC2)cc1Nc1cccc2c1N(C)[C@@H](C)c1nc(C)nn1-2` (single isomer, unassigned) [Compound 22], the concentration for half-maximal inhibition (IC50) (commonly the point on the concentration scale where inhibition reaches its midpoint) was below 30 nM in experiment [1], 300 to 1000 nM in experiment [2], above 1000 nM in experiment [3] and below 30 nM in experiment [4].

As to `[2H]C([2H])([2H])NC(=O)c1cnc(NC(=O)C2CC2)cc1Nc1cccc2c1N(C)[C@@H](C)c1nc(C)nn1-2` (single isomer, unassigned) [Compound 25], the IC50 was below 30 nM in experiment [1], above 1000 nM in experiment [2], above 1000 nM in experiment [3] and below 30 nM in experiment [4].

Consider `[2H]C([2H])([2H])NC(=O)c1cnc(NC(=O)NC)cc1Nc1cccc2c1N(C)[C@@H](C)c1nn(C)nc1-2` (single isomer, unassigned) [Compound 55], for which the IC50 in experiment [1] is below 30 nM; in experiment [2] it was above 1000 nM; in experiment [3], above 1000 nM; in experiment [4] it was below 30 nM.

For `[2H]C([2H])([2H])NC(=O)c1cnc(NC(=O)NC)cc1Nc1cccc2c1N(C)[C@H](C)c1nn(C)nc1-2` (single isomer, unassigned) [Compound 56], the IC50 in experiment [1] is above 1000 nM; in experiment [2], above 1000 nM; in experiment [3], above 1000 nM; in experiment [4], 30 to 300 nM.

In the case of `[2H]C([2H])([2H])NC(=O)c1cnc(NC(=O)C2CC2)cc1Nc1cccc2c1N(C)[C@@H](C)c1nn(C)nc1-2` (single isomer, unassigned) [Compound 57], the 50% inhibitory concentration (IC50) was below 30 nM in experiment [1], above 1000 nM in experiment [2], above 1000 nM in experiment [3] and below 30 nM in experiment [4].

Consider `[2H]C([2H])([2H])NC(=O)c1nnc(NC(=O)C2CC2)cc1Nc1cccc2c1N(C)[C@@H](C)c1nn(C)nc1-2` (single isomer, unassigned) [Compound 60], for which the IC50 was below 30 nM in experiment [1], above 1000 nM in experiment [2], above 1000 nM in experiment [3] and below 30 nM in experiment [4].

On to `[2H]C([2H])([2H])NC(=O)c1nnc(NC(=O)NC)cc1Nc1cccc2c1N(C)[C@@H](C)c1nn(C)nc1-2` (single isomer, unassigned) [Compound 62], for which the IC50 in experiment [1] was below 30 nM; in experiment [2], above 1000 nM; in experiment [3] it was above 1000 nM; in experiment [4], below 30 nM.

Consider `[2H]C([2H])([2H])NC(=O)c1nnc(NC(=O)C2CC2)cc1Nc1nccc2c1N(C)[C@@H](C)c1nn(C)nc1-2` (single isomer, unassigned) [Compound 94], for which the IC50 in experiment [1] was below 30 nM; in experiment [2], 300 to 1000 nM; in experiment [3], above 1000 nM; in experiment [4] it was below 30 nM.

Consider `[2H]C([2H])([2H])NC(=O)c1nnc(NC(=O)C2CC2)cc1Nc1nccc2c1N(C)[C@H](C)c1nn(C)nc1-2` (single isomer, unassigned) [Compound 95], for which the IC50 in experiment [1] is 30 to 300 nM; in experiment [2], above 1000 nM; in experiment [3] it was above 1000 nM; in experiment [4], below 30 nM.

Turning to `[2H]C([2H])([2H])NC(=O)c1nnc(NC(=O)NC)cc1Nc1nccc2c1N(C)[C@@H](C)c1nn(C)nc1-2` (single isomer, unassigned) [Compound 100], the IC50 in experiment [1] is below 30 nM; in experiment [2], above 1000 nM; in experiment [3] it was above 1000 nM; in experiment [4] it was below 30 nM.

With `[2H]C([2H])([2H])NC(=O)c1cnc(NC(=O)C2CC2)cc1Nc1cc(F)cc2c1N(C)[C@@H](C)c1nc(C)nn1-2` (single isomer, unassigned) [Compound 110], the IC50 in experiment [1] was 30 to 300 nM; in experiment [3] it was above 1000 nM; in experiment [4], below 30 nM. Further, the “IFN-γ (SEAP selectivity, IC50)” value in experiment [2] is listed as “C/D”.

As to `[2H]C([2H])([2H])NC(=O)c1nnc(NC(=O)C2CC2)cc1Nc1cc(F)cc2c1N(C)[C@@H](C)c1nc(C)nn1-2` (single isomer, unassigned) [Compound 111], the IC50 in experiment [1] was 30 to 300 nM; in experiment [2], above 1000 nM; in experiment [3], above 1000 nM; in experiment [4], below 30 nM.

As for `[2H]C([2H])([2H])NC(=O)c1nnc(Nc2cc(C)nc(C)n2)cc1Nc1cccc2c1N(C)Cc1nc(C)nn1-2` [Compound 15, 4-((2,5-dimethyl-4,5-dihydro-[1,2,4]triazolo[1,5-a]quinoxalin-6-yl)amino)-6-((2,6-dimethylpyrimidin-4-yl)amino)-N-(methyl-d3)pyridazine-3-carboxamide], the IC50 in experiment [1] was below 30 nM; in experiment [2], below 30 nM; in experiment [3], 300 to 1000 nM; in experiment [4] it was below 30 nM.

For the molecule `[2H]C([2H])([2H])NC(=O)c1nnc(NC(=O)NC)cc1Nc1cccc2c1N(C)Cc1nc(C)nn1-2` [Compound 19, 4-((2,5-dimethyl-4,5-dihydro-[1,2,4]triazolo[1,5-a]quinoxalin-6-yl)amino)-N-(methyl-d3)-6-(3-methylureido)pyridazine-3-carboxamide], the concentration for half-maximal inhibition (IC50) was 30 to 300 nM in experiment [1], 300 to 1000 nM in experiment [2], above 1000 nM in experiment [3] and below 30 nM in experiment [4].

For the molecule `[2H]C([2H])([2H])NC(=O)c1cnc(Nc2cc(C)nc(C)n2)cc1Nc1cccc2c1N(C)Cc1nc(C)nn1-2` [Compound 26, 4-((2,5-dimethyl-4,5-dihydro-[1,2,4]triazolo[1,5-a]quinoxalin-6-yl)amino)-6-((2,6-dimethylpyrimidin-4-yl)amino)-N-(methyl-d3)nicotinamide], the IC50 in experiment [1] is below 30 nM; in experiment [2], 30 to 300 nM; in experiment [3] it was 300 to 1000 nM; in experiment [4] it was below 30 nM.

`[2H]C([2H])([2H])NC(=O)c1cnc(Nc2ccc(F)cn2)cc1Nc1cccc2c1N(C)Cc1nc(C)nn1-2` [Compound 27, 4-((2,5-dimethyl-4,5-dihydro-[1,2,4]triazolo[1,5-a]quinoxalin-6-yl)amino)-6-((5-fluoropyridin-2-yl)amino)-N-(methyl-d3)nicotinamide]: the figures for the IC50 in experiment [2], in experiment [3] and in experiment [4] were 300 to 1000 nM, above 1000 nM and below 30 nM, respectively.

Regarding `[2H]C([2H])([2H])NC(=O)c1nnc(NC(=O)C2CC2)cc1Nc1cccc2c1N(C)C([2H])([2H])c1nc(C)nn1-2` [Compound 35, 6-(cyclopropanecarboxamido)-4-((2,5-dimethyl-4,5-dihydro-[1,2,4]triazolo[1,5-a]quinoxalin-6-yl-4,4-d2)amino)-N-(methyl-d3)pyridazine-3-carboxamide], the half-inhibitory concentration (IC50) in experiment [1] was below 30 nM; in experiment [2], 30 to 300 nM; in experiment [3] it was above 1000 nM; in experiment [4], below 30 nM.

Take `[2H]C([2H])([2H])NC(=O)c1cnc(NC(=O)C2CC2)cc1Nc1cccc2c1N(C)C([2H])([2H])c1nc(C)nn1-2` [Compound 36, 6-(cyclopropanecarboxamido)-4-((2,5-dimethyl-4,5-dihydro-[1,2,4]triazolo[1,5-a]quinoxalin-6-yl-4,4-d2)amino)-N-(methyl-d3)nicotinamide]: the concentration for half-maximal inhibition (IC50) in experiment [1] is below 30 nM; in experiment [2], 300 to 1000 nM; in experiment [3], above 1000 nM; in experiment [4] it was below 30 nM.
